For one test, the system named is HL60 (leukemia). Briefly: In vitro cytotoxic activity assay (MTT), HL60. It counts as cell-based. As to conditions: Homo sapiens, HL-60; cells exposed for 96 hours; 50 % inhibition of cell proliferation; read-out: Cytotoxicity activity IC50, HL60 (leukemia). As to the method: (§1) Compounds 1-15 were screened for their in vitro cytotoxic activity utilizing a 3-(4,5-dimethyl-thiazol-2-yl)-2,5-diphenyltetrazolium bromide (MTT) assay against selected cancer human cell lines consisting of PC3 (prostate), HCT116 (colon), A375 (melanoma), H1299 (lung), MIAPaCa-2 (pancreas), HL60 (leukemia), MCF7 (breast), MDA-MB-231 (breast) (T. Mosmann, J. Immunol. Meth., 1983, 65, 55-63). The cells were cultured at 37° C. in RMPI1640 medium supplemented with 10% fetal bovine serum, 50 IU/mL penicillin, and 50 μg/mL streptomycin in a 5% CO2 incubator. All cells were sub-cultured 3 times/week by trypsinisation. Viable cells were seeded and allowed to adhere for 12 hours before a test drug was added in 96-well plates at an initial density of 1.0×10^5 cells/mL. Tumor cell lines were separately exposed to various concentrations of the tested compounds followed by incubation at a temperature of 37° C. during 96 hours inside a medium of fresh RMPI 1640. Cells were subsequently incubated at 37° C. using MTT at 0.5 mg/mL during 4 hours. After removal of supernatant, formazan crystals were dissolved in isopropanol and the optical density was measured at 570 nm. CX-4945 was used as a positive control.

A further test concerns HCT116 (colon). The experiment in a line: In vitro cytotoxic activity assay (MTT), HCT116. The class given is cell-based. Particulars: Homo sapiens, HCT-116; cells exposed for 96 hours; 50 % inhibition of cell proliferation; read-out: Cytotoxicity activity IC50, HCT116 (colon). As to the method: as §1
The test system of the next test is MDA-MB-231 (breast). The experiment in a line: In vitro cytotoxic activity assay (MTT), MDA-MB-231. It counts as cell-based. As to conditions: Homo sapiens, cells exposed for 96 hours, 50 % inhibition of cell proliferation, read-out: Cytotoxicity activity IC50, MDA-MB-231 (breast). On the procedure:
as §1

The test system of a further test is H1299 (lung). The experiment in a line: In vitro cytotoxic activity assay (MTT), H1299. As to conditions: Homo sapiens, NCI-H1299; cells exposed for 96 hours; 50 % inhibition of cell proliferation; read-out: Cytotoxicity activity IC50, H1299 (lung). It counts as cell-based. On the procedure: as §1
In a further test the test system is PC3 (prostate). Briefly: In vitro cytotoxic activity assay (MTT), PC3. It counts as cell-based. As to conditions: Homo sapiens; cells exposed for 96 hours; 50 % inhibition of cell proliferation; read-out: Cytotoxicity activity IC50, PC3 (prostate). As to the method: as §1
In the next test the test system is MCF7 (breast). Briefly: In vitro cytotoxic activity assay (MTT), MCF7. The class given is cell-based. Particulars: Homo sapiens, cells exposed for 96 hours, 50 % inhibition of cell proliferation, read-out: Cytotoxicity activity IC50, MCF7 (breast). As to the method:
as §1

In the next test the test system is MIAPaCa-2 (pancreas). Briefly: In vitro cytotoxic activity assay (MTT), MIAPaCa-2. It counts as cell-based. As to conditions: Homo sapiens, MIA PaCa-2; cells exposed for 96 hours; 50 % inhibition of cell proliferation; read-out: Cytotoxicity activity IC50, MIAPaCa-2 (pancreas). On the procedure: as §1
In test [1] the target is T1, recombinant human CK2 (RRββ-holoenzyme) (Homo sapiens, UniProt P68400).
T1 construct: purchased Millipore
Briefly: CK2 Kinase Assay. It counts as biochemical. As to conditions: final ATP concentration 15 μM; 10 min at 30° C.; read-out: protein kinase CK2 inhibition IC50. As to the method:
CK2 Kinase Assay was conducted using the protocol as described in Pierre F. et al; J. Med. Chem. 2011, 54, 635-654. The tested compounds in aqueous solution were added at a volume of 10 μL to a reaction mixture comprising 10 μL of assay dilution buffer (ADB; 20 mM MOPS, pH 7.2, 25 mM β-glycerol phosphate, 5 mM EGTA, 1 mM sodium orthovanadate, and 1 mM dithiothreitol), 10 μL of substrate peptide (RRRDDDSDDD, dissolved in ADB at a concentration of 1 mM), 10 μL of recombinant human CK2 (RRββ-holoenzyme, 25 ng dissolved in ADB; Millipore). Reactions were initiated by the addition of 10 μL of ATP solution (90% 75 mMMgCl2, 75 μM ATP (final ATP concentration: 15 μM) dissolved in ADB; 10% [γ-33P] ATP (stock 1 mCi/100 μL; 3000 Ci/mmol (Perkin-Elmer) and maintained for 10 min at 30° C. The reactions were quenched with 100 μL of 0.75% phosphoric acid and then transferred to and filtered through a phosphor cellulose filter plate (Millipore). After washing each well five times with 0.75% phosphoric acid, the plate was dried under vacuum for 5 min and, following the addition of 15 μL of scintillation fluid to each well, the residual radioactivity was measured using a Wallac […] counter. The IC50 values were derived from eight concentrations of test inhibitors.

The next test concerns A375 (melanoma). The experiment in a line: In vitro cytotoxic activity assay (MTT), A375. It counts as cell-based. As to conditions: Homo sapiens, A-375; cells exposed for 96 hours; 50 % inhibition of cell proliferation; read-out: Cytotoxicity activity IC50, A375 (melanoma). On the procedure:
as §1

T1 sequence (P68400 whole entry): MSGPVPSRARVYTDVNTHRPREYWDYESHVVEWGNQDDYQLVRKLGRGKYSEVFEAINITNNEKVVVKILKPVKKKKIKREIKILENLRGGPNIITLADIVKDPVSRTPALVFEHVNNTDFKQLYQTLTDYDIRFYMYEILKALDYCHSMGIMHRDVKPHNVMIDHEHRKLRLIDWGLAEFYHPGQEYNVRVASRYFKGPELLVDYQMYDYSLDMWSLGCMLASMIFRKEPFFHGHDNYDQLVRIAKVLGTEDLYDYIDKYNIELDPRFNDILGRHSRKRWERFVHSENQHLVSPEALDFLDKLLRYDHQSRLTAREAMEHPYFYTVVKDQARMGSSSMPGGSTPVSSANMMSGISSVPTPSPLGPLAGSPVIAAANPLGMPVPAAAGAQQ
T1 sequence (P67870 whole entry partner): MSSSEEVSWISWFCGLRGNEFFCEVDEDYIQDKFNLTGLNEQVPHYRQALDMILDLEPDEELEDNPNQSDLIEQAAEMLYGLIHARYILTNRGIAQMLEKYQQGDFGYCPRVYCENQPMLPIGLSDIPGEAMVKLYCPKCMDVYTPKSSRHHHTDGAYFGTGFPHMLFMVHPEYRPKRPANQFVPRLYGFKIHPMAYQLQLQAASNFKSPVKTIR

Usually IC50 stands for the concentration that gives 50% inhibition. In the case of `O=C(O)c1cc2c(nc(Nc3cccc(Cl)c3)c3ccncc32)[nH]1` [Compound 1, 5-((3-chlorophenyl)amino)-7H-pyrrolo[2,3-c][2,6]naphthyridine-8-carboxylic Acid], the IC50 is 2200 nM in the test on HL60 (leukemia); 1000 nM with HCT116 (colon); 3800 nM in the test on MDA-MB-231 (breast); 1300 nM with H1299 (lung); 2100 nM in the test on PC3 (prostate); 3500 nM in the test with MCF7 (breast). Further, the values for the IC50 (in the test with MIAPaCa-2 (pancreas); in test [1]; in the test with A375 (melanoma)) were 900 nM, 8 nM and 2900 nM, respectively.

For the origin of these results see patent publication US12129252B1, “Pyrrolo[2,3-c][2,6]naphthyridine-8-carboxylic acids as CK2 inhibitors” (KING FAISAL UNIVERSITY, priority 2024, dated 2024).
